Tested on: IgA production in the intestinal tract
Assay: IgA concentration in feces of suckling calves fed DFAIII (ELISA)
Format: in vivo, Holstein calves
Conditions: for IgA Concentration (mg/g feces): mean ± standard deviation
Description: Twelve head of Holstein calves in suckling period as test subjects were divided into a control group (7 head) and a DFAIII feeding group (5 head). Colostrum was fed to the calves up to 6 days old after birth. In the DFAIII feeding group, 6 g each of difructose anhydride III (DFAIII) (manufactured by Nippon Beet Sugar Manufacturing Co., Ltd.; product name: Koushi no Mikata) was mixed with the colostrum and fed to the calves in the first and second colostrum feeding after birth (at 0 to 1 day old). From 7 days old, the 7 head of calves in suckling period in the control group were fed with a starter, which is a mixed feed for calf in suckling period (manufactured by Nippon Beet Sugar Manufacturing Co., Ltd.; product name: Start; component contents: protein 22%, total digestible nutrients 74%), and the 5 head of calves in suckling period in the DFAIII feeding group were fed with a feed (DFAIII-containing feed) in which DFAIII (manufactured by Nippon Beet Sugar Manufacturing Co., Ltd.) was added in an amount of 2.0 wt % to and mixed with the starter, by free feeding together with hay and water. The amount 2.0 wt % of DFAIII in the DFAIII-containing feed is calculated as the weight proportion (w/w %) of DFAIII relative to the total weight of the starter and DFAIII. From seven days old, 2 L of 15% milk substitute solution (without DFAIII) was further fed to the calves in suckling period twice a day.
Fresh feces were collected from the calves of each test group at 7 days old, 14 days old, 21 days old, and 28 days old. The IgA concentrations in feces were measured by the ELISA method using an IgA ELISA Quantitation Kit (manufactured by BETHYL Laboratories, Inc.). The IgA concentration in feces was expressed in a milligram amount of IgA per wet mass of the feces.

OC[C@H]1O[C@@]2(CO[C@]3(CO)O[C@H](CO)[C@@H](O)[C@@H]3O2)[C@@H](O)[C@@H]1O [DFAIII, di-D-fructofuranose 1, 2:2,3′ dianhydride]
IgA Concentration (mg/g feces) (7 days old, Holstein calves in suckling period, 6 g DFAIII in first and second colostrum feeding): 0.65 ± 0.32 mg/g feces
IgA Concentration (mg/g feces) (14 days old, 6 g DFAIII in colostrum x2, then starter with 2.0 wt % DFAIII from 7 days old, free feeding): 1.19 ± 0.45 mg/g feces
IgA Concentration (mg/g feces) (21 days old, 6 g DFAIII in colostrum x2, then starter with 2.0 wt % DFAIII from 7 days old, free feeding): 2.60 ± 1.01 mg/g feces
IgA Concentration (mg/g feces) (28 days old, 6 g DFAIII in colostrum x2, then starter with 2.0 wt % DFAIII from 7 days old, free feeding): 1.01 ± 1.34 mg/g feces
IgA concentrations in feces in comparison with the control group (DFAIII feeding group vs control group, Holstein calves in suckling period): statistically significantly higher

— patent US20240268419A1, “IgA PRODUCTION PROMOTING AGENT AND FEED COMPOSITION FOR PROMOTING IgA PRODUCTION” (Nippon Beet Sugar Manufacturing Co., Ltd., priority 2022, published 2024)
